The target of series [1] is T1, elastase (Porcine pancreatic elastase) (Sus scrofa, UniProt P00772).
T1 construct: gene CELA1; native pancreatic enzyme, commercial preparation; mature active enzyme
As to the kind of experiment: absorbance […] nm, p-nitroanilide release. Type of series: biochemical.

Series [2] deals with T2, hyaluronidase from bovine testes type I-S (Bos taurus, UniProt Q2YDK3).
T2 construct: gene SPAM1; native bovine testes enzyme, commercial type I-S preparation
T2 sequence (Q2YDK3 36-553): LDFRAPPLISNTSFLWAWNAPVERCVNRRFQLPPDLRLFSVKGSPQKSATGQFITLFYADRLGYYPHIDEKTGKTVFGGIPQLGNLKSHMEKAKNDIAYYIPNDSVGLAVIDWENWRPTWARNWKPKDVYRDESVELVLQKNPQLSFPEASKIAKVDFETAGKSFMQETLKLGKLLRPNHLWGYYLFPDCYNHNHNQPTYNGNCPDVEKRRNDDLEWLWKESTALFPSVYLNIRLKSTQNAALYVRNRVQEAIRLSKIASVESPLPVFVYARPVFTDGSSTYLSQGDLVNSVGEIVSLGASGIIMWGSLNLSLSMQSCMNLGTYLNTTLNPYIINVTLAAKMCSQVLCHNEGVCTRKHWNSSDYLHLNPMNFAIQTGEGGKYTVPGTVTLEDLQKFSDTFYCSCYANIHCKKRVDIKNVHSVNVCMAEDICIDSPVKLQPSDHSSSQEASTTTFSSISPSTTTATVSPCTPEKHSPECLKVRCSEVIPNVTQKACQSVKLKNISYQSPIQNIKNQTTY
As to the kind of experiment: turbidity with acidic albumin, absorbance […] nm. Type of series: biochemical. Particulars: hyaluronic acid substrate (0.03% stock); phosphate pH 5.35; 37 °C; 45 min; preincubation at pH 7.

A further series addresses huRPA32 (human, UniProt P15927 1-270). In words: EMSA; no extract; [Protein]50; 40 mM Tris-HCl pH 7.5, 50 mM NaCl, 37 °C 60 min, DNA 30 fmol/uL; 8% native PAGE in TBE. The settings on record: protein: recombinant; tags: N-terminal EF (EcoRI site); label: 5' biotin; single-stranded. (In EMSA bound probe runs differently from free probe, usually more slowly.)

huRPA32, sequence (P15927 whole entry): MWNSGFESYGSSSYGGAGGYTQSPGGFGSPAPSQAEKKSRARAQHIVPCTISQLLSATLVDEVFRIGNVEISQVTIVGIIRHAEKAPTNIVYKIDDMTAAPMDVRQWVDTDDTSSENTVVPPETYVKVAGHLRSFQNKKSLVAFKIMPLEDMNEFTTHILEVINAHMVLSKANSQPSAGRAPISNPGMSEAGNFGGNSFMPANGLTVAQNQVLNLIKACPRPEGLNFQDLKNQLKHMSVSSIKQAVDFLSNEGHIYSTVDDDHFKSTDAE
T1 sequence (P00772 27-266): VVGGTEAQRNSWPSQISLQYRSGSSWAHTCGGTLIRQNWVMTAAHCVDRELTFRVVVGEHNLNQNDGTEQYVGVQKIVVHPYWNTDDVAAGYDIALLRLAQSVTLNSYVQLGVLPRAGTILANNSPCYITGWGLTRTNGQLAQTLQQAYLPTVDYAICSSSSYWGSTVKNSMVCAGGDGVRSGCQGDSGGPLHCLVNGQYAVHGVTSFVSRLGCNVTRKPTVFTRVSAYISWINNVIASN

As usually defined, the IC50 is the midpoint of a concentration-inhibition curve. In series [1], `O=C(O[C@@H]1Cc2c(O)cc(O)cc2O[C@@H]1c1cc(O)c(O)c(O)c1)c1cc(O)c(O)c(O)c1` [EGCG] gave an IC50 of 9.62 µM.

`O=c1c(O)c(-c2cc(O)c(O)c(O)c2)oc2cc(O)cc(O)c12` [Myr] showed an IC50 in series [2] of 29.9 µM.

B1: dT25 (ssDNA)
DNA: TTTTTTTTTTTTTTTTTTTTTTTTT
Regarding B1, in the series with huRPA32, the “apparent K (half saturation)” value came to 6.3 ± 0.5 µM.
